According to PubChem BioAssay AID1645866 (Buhrlage Lab, Dana-Farber Cancer Institute and Novartis …, 2021):
The source made the active and inactive calls.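 The calls were made as follows: active = in confirmatory dose-response testing, peak deubiquitinase inhibition of 30% or more; inactive = the rest.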

Molecular target: Ubiquitin carboxyl-terminal hydrolase 28 (Homo sapiens) (UniProt Q96RU2)
Assay: Ubiquitin-specific peptidase 28 DUB inhibitors, biochemical concentration-dependence assay, validation of primary screening hits (AID 1645866)
Details: purified USP28, ubiquitin-rhodamine fluorescence, 30 min

Sequence of Ubiquitin carboxyl-terminal hydrolase 28 (Homo sapiens) (Q96RU2 whole entry, looked up): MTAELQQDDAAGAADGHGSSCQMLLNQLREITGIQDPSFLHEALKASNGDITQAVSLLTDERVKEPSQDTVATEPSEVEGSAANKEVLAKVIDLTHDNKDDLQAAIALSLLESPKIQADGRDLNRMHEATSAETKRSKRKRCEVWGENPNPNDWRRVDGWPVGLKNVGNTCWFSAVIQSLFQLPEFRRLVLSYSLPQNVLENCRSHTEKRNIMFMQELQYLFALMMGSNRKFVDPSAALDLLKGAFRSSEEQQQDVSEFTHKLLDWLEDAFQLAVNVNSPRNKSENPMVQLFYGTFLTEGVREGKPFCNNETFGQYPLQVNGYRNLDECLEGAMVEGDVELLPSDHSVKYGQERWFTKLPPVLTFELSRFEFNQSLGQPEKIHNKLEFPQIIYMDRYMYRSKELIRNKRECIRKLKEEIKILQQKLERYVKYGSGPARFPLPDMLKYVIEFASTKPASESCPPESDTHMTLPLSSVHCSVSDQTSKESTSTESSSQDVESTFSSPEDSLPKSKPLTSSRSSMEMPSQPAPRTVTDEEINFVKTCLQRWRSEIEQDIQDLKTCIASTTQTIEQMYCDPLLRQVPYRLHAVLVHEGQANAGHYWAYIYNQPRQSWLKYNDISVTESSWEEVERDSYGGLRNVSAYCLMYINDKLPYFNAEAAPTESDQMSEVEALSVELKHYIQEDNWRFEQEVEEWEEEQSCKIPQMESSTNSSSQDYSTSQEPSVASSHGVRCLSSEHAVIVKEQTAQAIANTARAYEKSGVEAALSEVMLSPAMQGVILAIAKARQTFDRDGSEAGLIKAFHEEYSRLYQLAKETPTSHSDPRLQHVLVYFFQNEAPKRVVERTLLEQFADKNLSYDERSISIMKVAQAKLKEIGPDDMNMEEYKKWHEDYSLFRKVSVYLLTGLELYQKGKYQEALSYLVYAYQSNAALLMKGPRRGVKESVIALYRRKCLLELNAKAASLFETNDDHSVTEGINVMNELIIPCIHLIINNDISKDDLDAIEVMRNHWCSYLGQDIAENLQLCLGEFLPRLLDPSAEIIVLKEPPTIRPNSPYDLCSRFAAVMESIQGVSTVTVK

| IC50 | Structure (SMILES) |
| --- | --- |
| 18.6 µM | Cc1ccc2cc(CNc3ccccc3)c(=O)n(CC(=O)Nc3ccccc3C)c2c1 |
| 11.8 µM | Cc1nc2ccc(NC(=O)COc3ccccc3[N+](=O)[O-])cc2s1 |
| > 50 µM (inactive) | CCOc1ccc(S(=O)(=O)Nc2ccc[nH]c2=O)cc1 |
| 8.38 µM | Cc1ccc(NC2=NC(c3ccco3)n3c(nc(C)cc3=O)N2)c(C)c1 (stereo not given) |
| 15.6 µM | Cc1cc(-c2nnc(SCC(=O)Nc3ccc(Br)c(C)c3)n2N)n[nH]1 |
| > 50 µM (inactive) | COc1cccc(CC(=O)Nc2cc(F)c3nc(N4CCOCC4)ccc3c2)c1 |
| 15.1 µM | Cc1cc(O)c(Oc2cc(C)cc(O)c2O)c(O)c1 |
| 5.97 µM | N#Cc1ccccc1OCc1csc(-c2ccccc2)n1 |
| 2.25 µM | CC1=C(C)C(c2c(-c3ccc(C)cc3)[nH]c3ccccc23)N(C(C)(C)C)C1=O (stereo not given) |
| > 50 µM (inactive) | Cc1ccc2c(c1C)NC(=O)[C@]21[C@@H]2C(=O)N(c3cc(Cl)ccc3Cl)C(=O)[C@@H]2[C@@H]2CCCN21 |
| 25.3 µM | Cc1nc2cccnc2n1C1CCN(C(=O)c2cc3cc(Cl)ccc3[nH]2)C1 (stereo not given) |
| 23.5 µM | COCCCNC(=O)c1ccc(Cn2c(=O)c3ccccc3n(CC(=O)NC3CCCCC3)c2=O)cc1 |
| 31.6 µM | O=C(Nc1ccc2c(c1)OCCO2)c1ccc(N2CCCCC2)nn1 |
| 12.4 µM | COc1ccc(NC(=O)Cn2c(CS(=O)(=O)c3ccc(C)cc3)nc3ccccc32)cc1 |
| 5.8 µM | CSc1cccc(C(=O)Nc2ccc(-c3nc4ccccc4[nH]3)cc2)c1 |
| > 50 µM (inactive) | COCCCNC(=O)Cn1c(=O)n(Cc2ccc(C(=O)NCc3ccccc3OC)cc2)c(=O)c2ccccc21 |
| 27.2 µM | COc1c(O)c(O)c2c(=O)cc(-c3ccc(O)cc3)oc2c1OC |
| > 50 µM (inactive) | COc1ncccc1CN1CCn2c(Cn3cncn3)cnc2C1C (stereo not given) |
| 0.423 µM | Cc1ccc(Cc2nc(-c3ccc(=O)[nH]c3)no2)cc1 |
| 33.3 µM | COc1ccc(NC(=O)CC(=O)c2ccc([N+](=O)[O-])cc2)cc1S(=O)(=O)Nc1ccc(Cl)cc1 |
| 18.4 µM | CCCCCCCCCC(CCCCCCCCCC(=O)O)O[C@H]1O[C@@H](COC(C)=O)[C@H](O)[C@@H](O)[C@H]1OC(=O)CC(=O)O (stereo not given in full) |
| 4.61 µM | COc1ccc(OC)c(NC(=O)Cn2c(=O)n(CC3CCC(C(=O)NCCc4ccccc4)CC3)c(=O)c3ccccc32)c1 (stereo not given) |
| 36.9 µM | Cc1ccc(Cn2cc(-c3noc(-c4ccncc4)n3)nn2)cc1 |
| > 50 µM (inactive) | Cc1ccc(-c2ccc(N3CCOCC3)nn2)cc1S(=O)(=O)N1CCOCC1 |
| 32.5 µM | Cc1ccc(-c2cnc(C3CC3)o2)cc1S(=O)(=O)Nc1ccc(F)c(Cl)c1 |

| IC50 | Structure (SMILES) |
| --- | --- |
| 6.53 µM | O=C(O)c1ccc(C2Cc3c([nH]c(=O)[nH]c3=O)O2)cc1 (stereo not given) |
| 9.35 µM | CCOC(=O)c1ccc(S(=O)(=O)N2CCC(C(=O)OC(C)C(=O)Nc3cccc([N+](=O)[O-])c3)CC2)cc1 (stereo not given) |
| 2.68 µM | O=C(Cn1cc(C(=O)C(F)(F)F)c2ccccc21)N1CCc2ccccc21 |
| 14 µM | O=C(CN1CCCCC1)Nc1nnc(-c2ccc([N+](=O)[O-])cc2)s1 |
| 1.72 µM | COc1cc(-c2nc(C(N)=O)c3[nH]c(=O)n(-c4ccc(C)cc4)c3n2)cc(OC)c1OC |
| 41.2 µM | Cc1cc(=O)oc2cc(OCC(=O)Nc3cc(Cl)ccc3N3CCOCC3)ccc12 |
| > 50 µM (inactive) | Cc1ccc(OC(=O)c2cn(-c3ccccc3)nc2-c2cccnc2)cc1 |
| 0.743 µM | CCCc1nc2sc3c(NCCCN4CCOCC4)ncnc3c2c2c1CCC2 |
| 7.43 µM | O=C(Nc1ccc(-c2nnc3n2CCCCC3)cc1)c1ccc2c(c1)OCO2 |
| 24.9 µM | CC(=O)Nc1cc2cc(-n3cccc3)ccc2oc1=O |
| > 50 µM (inactive) | CCOc1ccc2nc(NC(=O)C3CCN(S(=O)(=O)c4ccc5c(c4)CC(C)N5C(C)=O)CC3)sc2c1 (stereo not given) |
| 37.4 µM | COc1ccccc1NC(=O)Nc1ccc(NC(=O)c2ccccc2O)cc1 |
| > 50 µM (inactive) | CO/C=C/C(=O)c1cc2cnc3c(=N)cc(NC(C)=O)c([nH]1)c23 |
| 7 µM | Cc1cccc(NC(=O)Cn2c(=O)n(Cc3ccc(F)cc3)c(=O)c3sccc32)c1 |
| 1.82 µM | O=C(NCc1ccncc1)C1CCN(c2cncnc2N2CCCCC2)CC1 |
| 20.6 µM | O=c1c(S(=O)(=O)c2cc(F)cc(F)c2)c[nH]c2cc(Cl)ccc12 |
| > 50 µM (inactive) | N#Cc1ccc(NC(=O)COC(=O)c2ccc3ccccc3n2)cc1 |
| 1.52 µM | CC[C@H](C)C[C@H]1CC[C@](O)([C@](C)(O)C(=O)N[C@@H]2C(=O)N3NCCC[C@@H]3C(=O)N(O)[C@@H](C)C(=O)NCC(=O)N3NCCC[C@H]3C(=O)N(O)[C@H](C)C(=O)O[C@H]2C(C)C)O[C@@H]1C |
| 15.7 µM | O=C(Cn1c(=O)n(-c2ccccc2)c(=O)c2ccc(C(=O)NCc3ccc4c(c3)OCO4)cc21)NCCC1=CCCCC1 |
| > 50 µM (inactive) | COc1ccc(S(=O)(=O)N2CCN3Cc4ccccc4N(C)CC3C2)cc1 (stereo not given) |
| 2.51 µM | O=C(NC1CCCCC1)c1cc2c(cn1)[nH]c1ccccc12 |
| 19.4 µM | O=C(CCCn1c(=O)[nH]c2cc(Cl)ccc2c1=O)N1CCc2ccccc2C1 |
| 43.8 µM | Cc1nc(Nc2ncc(C)s2)cc(C2CN(C(=O)Cc3ccccc3)CCO2)n1 (stereo not given) |
| 22.6 µM | COc1ccc(OC)c(NC(=O)c2ccc(-n3nnnc3SC)cc2)c1 |
| > 50 µM (inactive) | Cc1ccc(Nc2nc(Nc3cccc(F)c3)nc3nccnc23)c(C)c1 |

| IC50 | Structure (SMILES) |
| --- | --- |
| 25 µM | CCc1ccc(NC(=O)COc2cccc(-n3cnnn3)c2)cc1 |
| 1.48 µM | COc1cc(C)cc2c1C(=O)c1c(cc(O)c(Cl)c1O)C2=O |
| > 50 µM (inactive) | COc1ccccc1CNC(=O)c1ccccc1OCc1ccccc1Cl |
| 3.32 µM | Cc1ccc(C(=O)Nc2ccc(S(=O)(=O)N3CCCC3)cc2)cc1Br |
| 19.2 µM | Cc1cccc(N2C(=O)/C(=C\c3ccc4c(c3)OCCO4)c3ccccc3C2=O)c1 |
| 28.9 µM | O=C(CSc1nnc(CNC(=O)c2ccccc2F)o1)Nc1ccc(OC(F)(F)F)cc1 |
| 6.47 µM | N#Cc1c(SCCO)nc(N2CCCC2)c2c1CCCC2 |
| 15.5 µM | CCn1c(Cn2cccn2)nc2cc(NC(=O)c3ccc(F)cc3)ccc21 |
| 23.2 µM | CCOc1ccccc1C(=O)Oc1ccc2c(C)cc(=O)oc2c1 |
| 31 µM | Fc1ccccc1N1CCN(c2ncc3c(n2)CCN(Cc2ccccn2)C3)CC1 |
| 45.6 µM | Cc1ccc(NC(=O)c2ccc(N3CCOCC3)nn2)cc1F |
| 3.13 µM | CCn1c(CN2CCCC(c3nc(-c4cccnc4)n[nH]3)C2)nc2ccccc21 (stereo not given) |
| > 50 µM (inactive) | C[C@H](NC(=O)Cc1ccccc1F)c1nc2cc(-c3ccccc3F)ncn2n1 |
| 24.1 µM | COc1ccc(NS(=O)(=O)c2cc(NC(=O)CCc3nc4ccccc4s3)ccc2C)cc1 |
| > 50 µM (inactive) | COC(=O)c1cc(C)sc1NC(=O)c1cccc(OC)c1OC |
| 20 µM | CCc1ccc2[nH]c3c(c(=O)c2c1)CN(CC(=O)NCc1ccc2c(c1)OCO2)CC3 |
| > 50 µM (inactive) | Cc1cc(Cl)ccc1NC(=O)c1cc(-c2cccnc2)n[nH]1 |
| 18.7 µM | CCCC(=O)c1c[nH]c(C(=O)NCc2ccc(F)cc2)c1 |
| 18.3 µM | O=C(Cn1cccc1-c1nc(-c2ccccc2)cs1)N1CCOCC1 |
| 32.9 µM | CC1(C)Cc2nc3sc4c(=O)n(CC(=O)NCc5ccccc5)cnc4c3cc2CO1 |
| 28.2 µM | CN(c1ccccc1)c1nc(=O)n(CC(=O)Nc2ccc3c(c2)OCCO3)c2ccccc12 |
| 2.27 µM | COC1=CC(=O)c2c(O)c3c(c(C)c2C1=O)C[C@@]1(O)[C@H](O[C@H]2CC[C@H](O[C@H]4C[C@@](C)(O)[C@H](OC(=O)c5c(C)ccc(C)c5O)[C@H](C)O4)[C@@H](C)O2)C(=O)C(C(C)=O)=C(O)[C@@]1(O)C3=O |
| 9.05 µM | Cc1oc2ccc(NS(=O)(=O)c3ccc(F)cc3)cc2c1C(=O)OCc1ccccc1 |
| > 50 µM (inactive) | COc1ccc(/C=C/C(=O)N2CCc3ccccc32)cc1S(=O)(=O)N1CCOCC1 |
| 45.9 µM | O=C(CNC(=O)c1cc2ccccc2[nH]1)Nc1ccc2c(c1)OCCO2 |

| IC50 | Structure (SMILES) |
| --- | --- |
| 20.5 µM | O=C(CSc1ncnc2c1oc1ccccc12)NC1CCCC1 |
| 31.5 µM | CCCOc1ccc(C(=O)Nc2ccc(S(=O)(=O)Nc3cc(C)nc(C)n3)cc2)cc1 |
| > 50 µM (inactive) | COc1cc(OC)cc(C(=O)Nc2cnc(-c3ccccc3)nc2)c1 |
| 20.8 µM | Cn1c(=O)c2cc(C(=O)Nc3ccc(F)cc3)cnc2n(C)c1=O |
| > 50 µM (inactive) | Cc1ccc(NC(=O)c2cc(=O)n(C)c3c2c(=O)n(C)c(=O)n3C)c(C)c1 |
| 29.5 µM | O=C(Cn1c(=O)n(Cc2ccc(F)cc2)c(=O)c2ncccc21)Nc1ccccc1 |
| 33.1 µM | O=C(c1ccc(Cl)cc1)c1c[nH]cc1-c1c(F)cccc1Cl |
| 23 µM | Oc1ccc(-c2nc3ccc(Cl)cn3c2NC2CCCCC2)cc1 |
| 28.1 µM | CC1=C(c2ccc(F)cc2)S(=O)(=O)N=C1Nc1ccc(Cl)cc1 |
| 14.9 µM | C[C@@H](C(=O)NCc1ccc(F)cc1)N1C(=O)N2CCc3c([nH]c4ccccc34)[C@@]2(C)C1=O |
| 21.9 µM | Fc1ccc(CSc2nnc(-c3ccccn3)n2Cc2ccco2)cc1 |
| 30.5 µM | O=C(Nc1ccc(F)c(Cl)c1)c1ccc(N2CCCCS2(=O)=O)cc1Cl |
| 28.7 µM | O=C(Cn1cnc2ccccc21)Nc1ccc2c(c1)CCC2 |
| 4.85 µM | CCN1C(=O)COc2ccc(NC(=O)c3ccc(OCc4nonc4C)cc3)cc21 |
| > 50 µM (inactive) | O=C(c1ccc2occc2c1)N1CCC(S(=O)(=O)c2ccc(-c3ccco3)cc2)CC1 |
| 16.2 µM | Cc1ccc(CSC2=NS(=O)(=O)c3ccccc3N2)cc1 |
| 32.8 µM | CC(=O)Nc1ccc(S(=O)(=O)Nc2ccc(Nc3ccc(-n4cccn4)nn3)cc2)cc1 |
| 3.65 µM | CCCCn1c(=O)c(CCC(=O)OCC(=O)Nc2ccc3c(c2)OCCO3)nc2ccccc21 |
| 33.6 µM | O=C(Nc1ccc2nccnc2c1)c1cccc(C(F)(F)F)c1 |
| 20.3 µM | COc1ccc2c(c1)CCc1c(C(=O)NCc3cccnc3)noc1-2 |
| > 50 µM (inactive) | CCOc1ccccc1C(=O)NCC(=O)OC(C(=O)c1c[nH]c2ccccc12)c1ccccc1 (stereo not given) |
| 5.99 µM | CC(=O)Nc1cc(-c2cccc(O)c2)cn2c(-c3cnn(C)c3)cnc12 |
| > 50 µM (inactive) | Cc1ccc(CNC(=O)c2cnc3ccccc3n2)cc1 |
| > 50 µM (inactive) | COc1ccc(-n2c(=O)c(CCC(=O)O)nc3ccccc32)cc1 |
| 19.7 µM | CCc1cc2c(=O)[nH]c(Cc3ccc(OC)cc3)nc2s1 |
